Experimental data from patent US20070207946A1, “Dipeptidyl peptidase IV inhibitors and their uses for lowering blood pressure levels” (priority 2001, published 2007).

Experiments:
[1] = biological target: T1, recombinant human prolyl oligopeptidase (Homo sapiens, UniProt P48147); experiment: Cross reacting enzymes - prolyl oligopeptidase; type: biochemical; settings: concentration range 1*10^−4M-5*10^−8 M; pH7.6
T1 construct: made in house; host or cells: E. coli
T1 sequence (P48147 1-710): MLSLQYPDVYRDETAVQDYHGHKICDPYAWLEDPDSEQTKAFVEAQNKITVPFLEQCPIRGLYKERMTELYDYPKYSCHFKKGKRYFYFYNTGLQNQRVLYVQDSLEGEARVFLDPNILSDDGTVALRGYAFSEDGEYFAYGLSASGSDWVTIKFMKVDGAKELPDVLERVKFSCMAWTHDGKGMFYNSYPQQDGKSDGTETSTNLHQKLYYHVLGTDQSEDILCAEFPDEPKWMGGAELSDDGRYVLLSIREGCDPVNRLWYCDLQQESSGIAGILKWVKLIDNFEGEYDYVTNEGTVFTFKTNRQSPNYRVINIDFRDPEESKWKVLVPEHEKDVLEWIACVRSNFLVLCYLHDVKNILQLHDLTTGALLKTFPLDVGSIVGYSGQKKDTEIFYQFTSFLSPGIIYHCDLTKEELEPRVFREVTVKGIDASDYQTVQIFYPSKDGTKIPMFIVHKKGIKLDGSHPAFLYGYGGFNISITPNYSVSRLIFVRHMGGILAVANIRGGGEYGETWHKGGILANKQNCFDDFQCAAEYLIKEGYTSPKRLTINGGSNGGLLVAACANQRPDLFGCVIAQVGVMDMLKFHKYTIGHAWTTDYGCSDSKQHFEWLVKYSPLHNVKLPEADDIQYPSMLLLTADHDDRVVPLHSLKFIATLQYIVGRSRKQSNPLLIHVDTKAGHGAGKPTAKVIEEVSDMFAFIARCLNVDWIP
Method: Substrates are peptides with a molecular weight up to 3000 Da. The enzyme used was a recombinant human prolyl oligopeptidase. Recombinant expression was performed in E. coli under standard conditions as described elsewhere in the state of the art.
100 μl glutaminyl pyrrolidine or glutaminyl thiazolidine in an concentration range of 1*10^−4M-5*10^−8 M were admixed with 100 μl μl buffer solution (40 mM HEPES, pH7.6, 0.015% Brij, 1 mM DTT) and 20 μl POP solution. The assay mixture was pre-incubated at 30° C. for 15 min. After pre-incubation, 50 μl glycylprolylprolyl-4-nitroaniline solution (0.29 mM) was added and measurement of yellow color development due to 4-nitroaniline release was performed at 30° C. and λ=405 nm for 10 min using a plate reader (sunrise, Tecan, Crailsheim, Germany). The IC50-values were calculated using Graphit 4.0.15 (Erithacus Software, Ltd., UK).

diabetic Zucker rats = experiment: Dose escalation study in fatty Zucker rats, oral glucose tolerance test; type: in vivo, rat; settings: 2 g/kg glucose
Method: N=30 male Zucker rats (fa/fa), mean age 11 weeks (5-12 weeks), mean body weight 350 g (150-400 g), were purchased from Charles River (Sulzfeld, Germany).
After delivery they were kept for >12 weeks until nearly all fatty Zucker rats had the characteristics of manifest diabetes mellitus. A group of N=8 animals were recruited for testing three escalating doses of glutaminyl pyrrolidine vs. placebo (saline).
Placebo (1 ml saline, 0.154 mol/l) or escalating doses of glutaminyl pyrrolidine (5, 15 and 50 mg/kg b.w.) were administered to groups of N=8 fatty Zucker rats. 375 mg of glutaminyl pyrrolidine were dissolved in 1000 μl DMSO (E. Merck, Darmstadt; Germany [Dimethyl sulfoxide p.a.]). 10 ml saline were added and 1 ml aliquots, each containing 34.09 mg of glutaminyl pyrrolidine, were stored at −20° C. For preparation of the test substance, dose dependent aliquots were diluted in saline.
After overnight fasting, placebo or test substance were administered to the fatty Zucker rats via feeding tube orally (15 G, 75 mm; Fine Science Tools, Heidelberg, Germany) at −10 min An oral glucose tolerance test (OGTT) with 2 g/kg b.w. glucose (40% solution, B. Braun Melsungen, Melsungen, Germany) was administered at ±0 min via a second feeding tube. Venous blood samples from the tail veins were collected at −30 min, −15 min, ±0 min and at 5, 10, 15, 20, 30, 40, 60, 90 and 120 min into 20 μl glass capillaries, which were placed in standard tubes filled with 1 ml solution for blood glucose measurement.
Glucose levels were measured using the glucose oxidase procedure (Super G Glucose analyzer; Dr. Müller Gerätebau, Freital, Germany).
Statistical evaluations and graphics were performed with PRISM® 3.02 (GraphPad Software, Inc.). All parameters were analysed in a descriptive manner including mean and SD.
After delivery they were kept for >12 weeks until nearly all fatty Zucker rats had the characteristics of manifest diabetes mellitus. […]
Glucose levels were measured using the glucose oxidase procedure (Super G Glucose analyzer; Dr. Möller Gerätebau, Freital, Germany).

[2] = system: Dipeptidyl Peptidase I (DP I, Cathepsin C); experiment: Cross reacting enzymes - dipeptidyl peptidase I; type: biochemical; settings: concentration range 1*10^−5 M-1*10^−7M; MES buffer pH5.6
Method: DP I or cathepsin C is a lysosomal cysteine protease which cleaves off dipeptides from the N-terminus of their substrates (Gutman, H. R. & Fruton, J. S., 1948, J. Biol: Chem., 174, 851-858). It is classified as a cysteine protease. The enzyme used was purchased from Qiagen (Qiagen GmbH, Hilden, Germany). In order to get a fully active enzyme, the enzyme was diluted 1000 fold in MES buffer pH5.6 (40 mM MES, 4 mM DTT, 4 mM KCl, 2 mM EDTA, 0.015% Brij) and pre-incubated for 30 min at 30° C.
50 μl glutaminyl pyrrolidine or glutaminyl thiazolidine in a concentration range of 1*10^−5 M-1*10^−7M were admixed with 110 μl buffer-enzyme-mixture. The assay mixture was pre-incubated at 30° C. for 15 min. After pre-incubation, 100 μl histidylseryl-[…]-nitroaniline (2*10^−5M) was added and measurement of yellow color development due to β-nitroaniline release was performed at 30° C. and […] for 10 min., using a plate reader (HTS7000 plus, Applied Biosystems, Weiterstadt, Germany).
The IC50-values were calculated using Graphit 4.0.15 (Erithacus Software, Ltd., UK).

With `NC(=O)CCC(N)C(=O)N1CCCC1` (centres unmarked) [Gln-Pyrr, glutaminyl pyrrolidine] the “inhibition of POP activity” value [1] was “No inhibition”, the “glucose tolerance (OGTT)” value (diabetic Zucker rats; 5 mg/kg b.w. oral) was “limited improvement” and the “elevated blood glucose levels and glucose tolerance (OGTT)” value (diabetic Zucker rats; 15 mg/kg oral) was “Significant lowering”. The “elevated blood glucose levels and glucose tolerance (OGTT)” value (diabetic Zucker rats; 50 mg/kg b.w. oral) was “Significant lowering” and the “inhibition of DP I enzyme activity” value [2] was “No inhibition”.
